“And” between values parts separate entries of the source, which are not always exact repeats. Identical values can stand only once. Toxic doses and inconclusive results are not listed. Rule for the calls: active = survival T/C of 150% or more; inactive = T/C below 125% in these data. Residues, ends and D or L forms follow the SMILES beside them. *: point of attachment. Cbz = O=C(OCc1ccccc1)*
System: CD2F1 mice, L1210 leukemia ip, survival T/C
Assay: NCI In Vivo Anticancer Drug Screen. Data for tumor model L1210 Leukemia (intraperitoneal) in CD2F1 (CDF1) mice
Conditions: higher = longer survival
Procedure, shortened: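 Each value reflects a quotient of treated over vehicle control outcomes in mice with a transplanted tumor.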

[1] = endpoint: mean survival time, dose: 100.0 mg/kg/injection, schedule: Q04DX003 (ip), vehicle: saline with Tween-80
[2] = endpoint: mean survival time, dose: 200.0 mg/kg/injection, schedule: Q04DX003 (ip), vehicle: saline with Tween-80
[3] = endpoint: mean survival time, dose: 400.0 mg/kg/injection, schedule: Q04DX003 (ip), vehicle: saline with Tween-80
[4] = endpoint: mean survival time, dose: 100.0 mg/kg/injection, schedule: Q04DX002 (ip), vehicle: saline with Tween-80
[5] = endpoint: mean survival time, dose: 100.0 mg/kg/injection, schedule: Q01DX001 (ip), vehicle: saline
[6] = endpoint: mean survival time, dose: 200.0 mg/kg/injection, schedule: Q01DX001 (ip), vehicle: saline
[7] = endpoint: mean survival time, dose: 400.0 mg/kg/injection, schedule: Q01DX001 (ip), vehicle: saline
[8] = endpoint: mean survival time, dose: 50.0 mg/kg/injection, schedule: Q01DX009 (ip), vehicle: saline with Tween-80
[9] = endpoint: mean survival time, dose: 100.0 mg/kg/injection, schedule: Q01DX009 (ip), vehicle: saline with Tween-80
[10] = endpoint: mean survival time, dose: 200.0 mg/kg/injection, schedule: Q01DX009 (ip), vehicle: saline with Tween-80
[11] = endpoint: mean survival time, dose: 100.0 mg/kg/injection, schedule: Q01DX001 (ip), vehicle: saline with Tween-80
[12] = endpoint: mean survival time, dose: 200.0 mg/kg/injection, schedule: Q01DX001 (ip), vehicle: saline with Tween-80
[13] = endpoint: mean survival time, dose: 400.0 mg/kg/injection, schedule: Q01DX001 (ip), vehicle: saline with Tween-80
[14] = endpoint: mean survival time, dose: 400.0 mg/kg/injection, schedule: Q01DX009 (ip), vehicle: saline with Tween-80

Measured: T/C

CCOC(=O)c1c(C)cc(O)cc1O
inactive: [1] 95 % of control | [2] 95 % of control | [3] 95 % of control

N#CN=C(N)NC(=O)c1ccccc1
inactive: [1] 102 % of control | [2] 98 % of control

O=S(=O)(/C=C/S(=O)(=O)c1ccccc1)c1ccccc1
inactive: endpoint: mean survival time, dose: 62.5 mg/kg/injection, schedule: Q01DX009 (ip), vehicle: Klucel (hydroxypropylcellulose) (HPC) 97 % of control | endpoint: mean survival time, dose: 125.0 mg/kg/injection, schedule: Q01DX009 (ip), vehicle: Klucel (hydroxypropylcellulose) (HPC) 98 % of control

CC1CCN(N=Nc2ccccc2-c2nc(N)c3ccccc3n2)CC1
inactive: endpoint: mean survival time, dose: 100.0 mg/kg/injection, schedule: Q04DX002 (ip), vehicle: Klucel (hydroxypropylcellulose) (HPC) 98 % of control | endpoint: mean survival time, dose: 200.0 mg/kg/injection, schedule: Q04DX002 (ip), vehicle: Klucel (hydroxypropylcellulose) (HPC) 109 % of control | endpoint: mean survival time, dose: 400.0 mg/kg/injection, schedule: Q04DX002 (ip), vehicle: Klucel (hydroxypropylcellulose) (HPC) 95 % of control

CC1CCCC(CN=Cc2ccccc2O)[N-]1.CC1CCCC(CN=Cc2ccccc2O)[N-]1.[Ni+2] (stereo not given)
inactive: endpoint: mean survival time, dose: 6.25 mg/kg/injection, schedule: Q04DX002 (ip), vehicle: saline with Tween-80 98 % of control | endpoint: mean survival time, dose: 12.5 mg/kg/injection, schedule: Q04DX002 (ip), vehicle: saline with Tween-80 95 % of control | endpoint: mean survival time, dose: 25.0 mg/kg/injection, schedule: Q04DX002 (ip), vehicle: saline with Tween-80 91 % of control and 95 % of control | endpoint: mean survival time, dose: 50.0 mg/kg/injection, schedule: Q04DX002 (ip), vehicle: saline with Tween-80 91 % of control | [4] 97 % of control

CC1Cc2c([nH]c(=O)n(-c3ccccc3)c2=O)O1 (stereo not given)
inactive: [5] 103 % of control | [6] 92 % of control | [7] 92 % of control

COc1ccc([Si](C)(C)CNCCSS(=O)(=O)O)cc1
inactive: [8] 97 % of control | [9] 103 % of control | [1] 101 % of control | [10] 92 % of control | [2] 95 % of control

CCCCC(=O)Nc1ccc(Cl)cc1
inactive: [11] 101 % of control | [12] 95 % of control | [13] 106 % of control

Clc1ncnc2c1ncn2C1CCCCO1 (stereo not given)
inactive: endpoint: mean survival time, dose: 176.0 mg/kg/injection, schedule: Q01DX009 (ip), vehicle: other 117 % of control

NNC(=O)CCCO
inactive: endpoint: mean survival time, dose: 100.0 mg/kg/injection, schedule: Q01DX009 (ip), vehicle: saline 102 % of control | endpoint: mean survival time, dose: 200.0 mg/kg/injection, schedule: Q01DX009 (ip), vehicle: saline 101 % of control | endpoint: mean survival time, dose: 400.0 mg/kg/injection, schedule: Q01DX009 (ip), vehicle: saline 102 % of control

COC1=C(OC)C(=O)C(C/C=C(\C)CC/C=C(\C)CC/C=C(\C)CC/C=C(\C)CC/C=C(\C)CC/C=C(\C)CC/C=C(\C)CC/C=C(\C)CC/C=C(\C)CCC=C(C)C)=C(C)C1=O
inactive: endpoint: mean survival time, dose: 6.25 mg/kg/injection, schedule: Q01DX009 (ip), vehicle: saline with Tween-80 116 % of control and 97 % of control | endpoint: mean survival time, dose: 12.5 mg/kg/injection, schedule: Q01DX009 (ip), vehicle: saline with Tween-80 98 % of control and 100 % of control | endpoint: mean survival time, dose: 25.0 mg/kg/injection, schedule: Q01DX009 (ip), vehicle: saline with Tween-80 94 % of control and 100 % of control | [8] 97 % of control and 106 % of control | [5] 96 % of control | [9] 94 % of control and 102 % of control | [6] 92 % of control | [10] 97 % of control and 100 % of control | [7] 94 % of control

CCC(C)OC(=O)CCl (stereo not given)
inactive: endpoint: mean survival time, dose: 75.0 mg/kg/injection, schedule: Q01DX001 (ip), vehicle: other 97 % of control | endpoint: mean survival time, dose: 150.0 mg/kg/injection, schedule: Q01DX001 (ip), vehicle: other 96 % of control

CC(CCc1ccccc1)NC1=NCCO1 (stereo not given)
inactive: [9] 102 % of control | [1] 98 % of control | [10] 95 % of control | [2] 103 % of control | [14] 98 % of control | [3] 95 % of control

Cc1ccc(C(=O)c2cnc(C)n2Cc2ccccc2)cc1
inactive: [9] 92 % of control | [10] 92 % of control | [14] 97 % of control

CCCCCC[Se][Se]CCCCCC
inactive: endpoint: median survival time, dose: 1.56 mg/kg/injection, schedule: Q01DX009 (ip), vehicle: Klucel (hydroxypropylcellulose) (HPC) 98 % of control | endpoint: median survival time, dose: 3.12 mg/kg/injection, schedule: Q01DX009 (ip), vehicle: Klucel (hydroxypropylcellulose) (HPC) 100 % of control | endpoint: median survival time, dose: 6.25 mg/kg/injection, schedule: Q01DX009 (ip), vehicle: Klucel (hydroxypropylcellulose) (HPC) 101 % of control | endpoint: median survival time, dose: 12.5 mg/kg/injection, schedule: Q01DX009 (ip), vehicle: Klucel (hydroxypropylcellulose) (HPC) 97 % of control

CCOc1ccc(NC(=O)C(C)O)cc1 (stereo not given)
inactive: [9] 95 % of control | [1] 103 % of control | [10] 101 % of control | [2] 97 % of control | [14] 107 % of control | [3] 97 % of control

O=C(O)CNC(=O)CNC(=O)CNC(=O)OCc1ccccc1 (Cbz-Gly-Gly-Gly-OH)
inactive: [1] 96 % of control | [2] 100 % of control | [3] 97 % of control

O=C(Nc1ccccc1[N+](=O)[O-])OC/C=C/c1ccccc1
inactive: [4] 91 % of control | endpoint: mean survival time, dose: 200.0 mg/kg/injection, schedule: Q04DX002 (ip), vehicle: saline with Tween-80 91 % of control | endpoint: mean survival time, dose: 400.0 mg/kg/injection, schedule: Q04DX002 (ip), vehicle: saline with Tween-80 87 % of control

CCOC(=O)C(=O)CC1=CC=CC2=NC(=O)CCN12
inactive: [11] 93 % of control | [12] 93 % of control | [13] 102 % of control

CC(C)(CI)CI
inactive: [1] 104 % of control | [2] 102 % of control | [3] 96 % of control

c1cc2c(ncn3nnnc23)[nH]1
inactive: endpoint: mean survival time, dose: 25.0 mg/kg/injection, schedule: Q01DX009 (ip), vehicle: Klucel (hydroxypropylcellulose) (HPC) 91 % of control | endpoint: mean survival time, dose: 50.0 mg/kg/injection, schedule: Q01DX009 (ip), vehicle: Klucel (hydroxypropylcellulose) (HPC) 99 % of control | endpoint: mean survival time, dose: 100.0 mg/kg/injection, schedule: Q01DX009 (ip), vehicle: Klucel (hydroxypropylcellulose) (HPC) 86 % of control

Cc1ccc(S(=O)(=O)NN=C2CCC3(CC2)c2ccccc2-c2ccccc23)cc1
inactive: endpoint: mean survival time, dose: 100.0 mg/kg/injection, schedule: Q01DX001 (ip), vehicle: Klucel (hydroxypropylcellulose) (HPC) 96 % of control | endpoint: mean survival time, dose: 200.0 mg/kg/injection, schedule: Q01DX001 (ip), vehicle: Klucel (hydroxypropylcellulose) (HPC) 96 % of control | endpoint: mean survival time, dose: 400.0 mg/kg/injection, schedule: Q01DX001 (ip), vehicle: Klucel (hydroxypropylcellulose) (HPC) 98 % of control

CN(C)C(C)(CO)CO
inactive: [5] 98 % of control | [6] 98 % of control | [7] 113 % of control

c1ccc(CCC2=Nc3ccccc3CO2)cc1
inactive: [1] 102 % of control | [2] 103 % of control | [3] 102 % of control

CSCC12CCCC=C1CC1(CC2)OCCO1 (stereo not given)
inactive: [11] 96 % of control | [12] 96 % of control | [13] 96 % of control

COCCNC(=S)SCCN(C(C)C)C(C)C
inactive: endpoint: mean survival time, dose: 100.0 mg/kg/injection, schedule: Q01DX001 (sc), vehicle: olive oil, sesame oil, peanut oil 110 % of control

CN(C)C/C(=N\Oc1ccc([N+](=O)[O-])cc1[N+](=O)[O-])c1ccc(Cl)cc1
inactive: [8] 91 % of control | [11] 98 % of control | [9] 88 % of control | [12] 102 % of control | [10] 91 % of control | [13] 95 % of control

NNC(=O)C1CCN1C(c1ccccc1)c1ccccc1 (stereo not given)
inactive: [11] 98 % of control
